Measured values: patent US7666660B2, “Method for mixing inside a capillary and devices for achieving same” (priority 2005, dated 2010)

Biological target: β-galactosidase (β-Gal) (Escherichia coli, UniProt P00722)
Details: substrate of β-galactosidase, components mixed in a vial, 35 min incubation, 25° C., pH 7.2 phosphate buffer with 1 mM MgCl2, Michaelis-Menten equation
Method: β-galactosidase (β-Gal) (isolated from E. coli), fluorescein mono-β-D-galactopyranoside (FMG), and fluorescein sodium salt were purchased from Sigma-Aldrich (Oakville, ON, Canada). All other chemicals were from Sigma-Aldrich, Caledon, or BDH (Toronto, ON, Canada), and were of analytical grade. Stock solutions of 4.4 mM FMG and 5 nM β-Gal were prepared with 10 mM phosphate (pH 7.2) buffer containing 1 mM MgCl2, and stored at −80° C. The 10 nM phosphate (pH 7.2) buffer containing 1 mM MgCl2 was also used for enzyme reactions, and for capillary electrophoresis as a run buffer. […]
All capillary electrophoresis (CE) experiments were carried out with a P/ACE MDQ instrument equipped with a laser-induced fluorescent (LIF) detector (Beckman-Coulter; Fullerton Calif.). Fluorescence was excited by a 488-nm line of an argon-ion laser (5 mW). […]
6 μL of 1 μM FMG, 3 μL of 1 nM β-Gal, and 9 μL of 10 mM phosphate buffer containing 1 mM MgCl2 were mixed in a 200 μL reservoir. […] The reaction mixture was directly used for quantifying the amount of the product by CE. […] The identification and quantitative assay of products were preformed by the addition of fluorescein (internal reference) to the reaction mixture.
The Km and Kcat values were determined using an approach previously described by Berezovski et al. (Electrophoresis, 23:3398-403, 2002). […]

Sequence of β-galactosidase (β-Gal) (P00722 2-1024): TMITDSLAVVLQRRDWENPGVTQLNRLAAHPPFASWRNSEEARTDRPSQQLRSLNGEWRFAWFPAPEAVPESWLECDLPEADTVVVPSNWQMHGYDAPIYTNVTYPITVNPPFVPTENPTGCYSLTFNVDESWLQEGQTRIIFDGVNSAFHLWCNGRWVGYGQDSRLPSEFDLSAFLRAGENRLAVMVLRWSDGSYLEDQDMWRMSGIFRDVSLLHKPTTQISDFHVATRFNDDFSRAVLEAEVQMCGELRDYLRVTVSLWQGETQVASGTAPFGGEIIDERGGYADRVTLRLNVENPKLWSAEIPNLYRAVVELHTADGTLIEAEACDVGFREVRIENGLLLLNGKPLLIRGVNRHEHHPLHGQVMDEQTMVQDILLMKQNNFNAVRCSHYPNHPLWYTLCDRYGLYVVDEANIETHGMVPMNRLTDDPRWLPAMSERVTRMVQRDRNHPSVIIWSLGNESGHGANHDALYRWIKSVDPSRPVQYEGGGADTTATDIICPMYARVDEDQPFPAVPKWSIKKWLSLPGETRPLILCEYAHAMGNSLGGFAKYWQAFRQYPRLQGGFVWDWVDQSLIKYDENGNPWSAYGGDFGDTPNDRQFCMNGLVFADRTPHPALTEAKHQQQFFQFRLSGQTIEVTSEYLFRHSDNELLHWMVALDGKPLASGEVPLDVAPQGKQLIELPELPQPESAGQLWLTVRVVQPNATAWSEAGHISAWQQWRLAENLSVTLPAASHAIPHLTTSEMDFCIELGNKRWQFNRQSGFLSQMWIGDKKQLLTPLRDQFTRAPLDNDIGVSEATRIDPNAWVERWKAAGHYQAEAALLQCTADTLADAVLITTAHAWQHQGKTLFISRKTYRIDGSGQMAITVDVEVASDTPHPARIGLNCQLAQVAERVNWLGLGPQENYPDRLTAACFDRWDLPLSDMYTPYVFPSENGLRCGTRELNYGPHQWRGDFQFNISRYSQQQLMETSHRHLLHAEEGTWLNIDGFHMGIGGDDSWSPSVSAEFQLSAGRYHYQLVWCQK

**Q.** Which Km (read-out: Michaelis constant, Km) does the source give for `O=C1OC2(c3ccc(O)cc3Oc3cc(O[C@@H]4O[C@H](CO)[C@H](O)[C@H](O)[C@H]4O)ccc32)c2ccccc21` (stereo partly drawn) [fluorescein-mono-β-D-galactopyranoside, fluorescein mono-β-D-galactopyranoside] here?
**A.** The Km was 0.9 µM.

**Q.** What about the “catalytic rate constant, kcat” value of the same compound?
**A.** The value was 0.6 s⁻¹.
